Measurements: ChEMBL document CHEMBL1201862, “PubChem BioAssay data set” (2004)
Calls of active or inactive are those of the source.

Assays:
[1] = biological target: T1, Hexokinase HKDC1 (Homo sapiens, UniProt Q2TB90); assay: HKDC1 hexokinase activators, dose response, biochemical, W721R variant (AID 504730); type: functional
T1 sequence (Q2TB90 whole entry): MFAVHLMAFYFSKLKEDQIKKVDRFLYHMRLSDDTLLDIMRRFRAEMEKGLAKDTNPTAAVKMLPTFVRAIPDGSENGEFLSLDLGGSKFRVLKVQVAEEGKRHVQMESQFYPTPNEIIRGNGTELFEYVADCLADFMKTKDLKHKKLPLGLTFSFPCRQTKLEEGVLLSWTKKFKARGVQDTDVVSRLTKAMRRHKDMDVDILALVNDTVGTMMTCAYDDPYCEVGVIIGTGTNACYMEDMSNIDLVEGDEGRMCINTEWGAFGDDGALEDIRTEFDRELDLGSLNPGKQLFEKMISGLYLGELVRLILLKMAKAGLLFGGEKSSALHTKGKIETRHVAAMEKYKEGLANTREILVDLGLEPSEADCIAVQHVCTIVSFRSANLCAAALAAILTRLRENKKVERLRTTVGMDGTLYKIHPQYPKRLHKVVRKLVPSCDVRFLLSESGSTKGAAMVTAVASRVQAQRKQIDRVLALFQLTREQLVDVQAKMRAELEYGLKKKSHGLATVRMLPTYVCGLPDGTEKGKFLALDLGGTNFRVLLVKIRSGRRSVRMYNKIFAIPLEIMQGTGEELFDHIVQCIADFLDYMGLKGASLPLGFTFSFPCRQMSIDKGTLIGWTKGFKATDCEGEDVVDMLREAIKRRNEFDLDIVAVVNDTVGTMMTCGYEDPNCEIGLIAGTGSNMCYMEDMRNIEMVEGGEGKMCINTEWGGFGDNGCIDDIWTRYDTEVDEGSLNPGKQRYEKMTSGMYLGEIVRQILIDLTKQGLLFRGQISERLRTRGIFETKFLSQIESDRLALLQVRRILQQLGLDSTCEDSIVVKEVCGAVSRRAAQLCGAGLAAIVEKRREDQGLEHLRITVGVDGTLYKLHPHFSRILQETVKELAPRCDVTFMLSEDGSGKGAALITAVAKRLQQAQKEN

[2] = biological target: T2, fMet-Leu-Phe receptor (Homo sapiens, UniProt P21462); assay: FPR ligands, dose response (AID 519); type: functional
T2 sequence (P21462 whole entry): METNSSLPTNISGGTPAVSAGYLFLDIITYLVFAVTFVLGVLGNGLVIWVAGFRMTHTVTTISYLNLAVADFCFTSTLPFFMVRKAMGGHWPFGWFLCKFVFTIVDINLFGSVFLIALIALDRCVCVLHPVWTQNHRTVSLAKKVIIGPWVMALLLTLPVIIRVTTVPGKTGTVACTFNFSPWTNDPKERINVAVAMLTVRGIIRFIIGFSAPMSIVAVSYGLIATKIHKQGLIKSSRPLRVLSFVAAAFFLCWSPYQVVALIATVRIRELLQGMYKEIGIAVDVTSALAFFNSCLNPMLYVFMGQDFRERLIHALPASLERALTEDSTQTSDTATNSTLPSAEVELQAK

[3] = inhibitors of firefly luciferase expression or activity, dose response, H4 neuroglioma cells, luminescence (AID 1990); type: functional, cell-based
[4] = inhibitors of SNCA 5'UTR-driven reporter translation, confirmation, H4 neuroglioma cells, luminescence (AID 1988); type: functional, cell-based
[5] = test system: J774.A1; assay: Confirmation of image-based Screening Assay for Inhibitors of Phagocytosis. [Related pubchem assays (depositor defined):AID1029, AID1643]; type: functional, cell-based; details: Mus musculus
[6] = test system: T-cell; assay: inhibitors of CD8+ T cell–vesicle binding, dose response, mouse 2C CD8+ T cells, flow cytometry (AID 485284); type: functional
[7] = biological target: T3, Short transient receptor potential channel 4 (Mus musculus, UniProt Q9QUQ5); assay: TRPC4 positive allosteric modulators, dose response, cell-based, HEK293 TRPC4/mu-opioid, Fluo-4 calcium, EC20 DAMGO (AID 434941); type: functional
T3 sequence (Q9QUQ5 whole entry): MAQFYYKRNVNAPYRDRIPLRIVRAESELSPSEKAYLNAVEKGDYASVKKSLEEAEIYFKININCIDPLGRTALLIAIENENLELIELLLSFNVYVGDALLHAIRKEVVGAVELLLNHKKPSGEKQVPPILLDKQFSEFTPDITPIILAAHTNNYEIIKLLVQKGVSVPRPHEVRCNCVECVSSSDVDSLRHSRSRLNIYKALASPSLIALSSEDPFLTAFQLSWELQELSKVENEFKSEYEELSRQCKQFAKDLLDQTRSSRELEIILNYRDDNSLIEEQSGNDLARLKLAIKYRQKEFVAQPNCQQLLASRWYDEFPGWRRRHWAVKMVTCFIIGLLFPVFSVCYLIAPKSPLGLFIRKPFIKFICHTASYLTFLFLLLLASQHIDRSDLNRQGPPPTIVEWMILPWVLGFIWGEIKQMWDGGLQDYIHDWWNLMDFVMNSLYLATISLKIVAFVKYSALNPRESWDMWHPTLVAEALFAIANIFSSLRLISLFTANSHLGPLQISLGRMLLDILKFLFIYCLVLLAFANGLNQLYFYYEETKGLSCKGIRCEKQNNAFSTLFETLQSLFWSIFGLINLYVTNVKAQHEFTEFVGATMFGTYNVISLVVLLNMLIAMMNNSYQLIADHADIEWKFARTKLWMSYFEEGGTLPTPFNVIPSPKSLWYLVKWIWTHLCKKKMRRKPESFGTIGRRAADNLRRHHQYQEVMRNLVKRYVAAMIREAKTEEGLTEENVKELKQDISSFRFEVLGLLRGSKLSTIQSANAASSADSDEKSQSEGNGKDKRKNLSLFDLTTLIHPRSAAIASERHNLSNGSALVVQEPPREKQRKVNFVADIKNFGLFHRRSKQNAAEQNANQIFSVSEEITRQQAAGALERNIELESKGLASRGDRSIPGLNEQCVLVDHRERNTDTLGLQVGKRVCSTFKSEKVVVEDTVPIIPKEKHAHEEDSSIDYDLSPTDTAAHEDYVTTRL

[8] = biological target: T4, Tyrosine-protein phosphatase non-receptor type 7 (Homo sapiens, UniProt P35236); type: functional
T4 sequence (P35236 whole entry): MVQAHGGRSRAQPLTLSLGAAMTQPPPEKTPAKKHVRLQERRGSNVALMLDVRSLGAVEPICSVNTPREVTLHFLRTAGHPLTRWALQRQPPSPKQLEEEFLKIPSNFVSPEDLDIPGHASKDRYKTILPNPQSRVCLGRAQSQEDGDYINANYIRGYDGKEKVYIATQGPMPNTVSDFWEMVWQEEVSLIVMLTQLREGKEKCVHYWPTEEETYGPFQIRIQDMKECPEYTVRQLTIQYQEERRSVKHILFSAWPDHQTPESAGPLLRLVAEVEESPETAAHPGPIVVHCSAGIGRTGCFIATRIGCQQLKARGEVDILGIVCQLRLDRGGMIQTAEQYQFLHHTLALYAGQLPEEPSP

[9] = biological target: T5, Tyrosine-protein phosphatase non-receptor type 22 (Homo sapiens, UniProt Q9Y2R2); type: functional
[10] = biological target: T5, Tyrosine-protein phosphatase non-receptor type 22; type: functional; remark: listed apart in the source
[11] = biological target: T6, Runt-related transcription factor 1/Core-binding factor subunit beta (Homo sapiens, UniProt Q01196+Q13951); assay: inhibitors of RUNX1 Runt–CBFb-SMMHC binding, primary screen, biochemical, FRET, Cerulean-Runt, Venus-CBFb-SMMHC, uHTS (AID 1434); type: protein assay;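 note: partner is the CBFb-SMMHC leukemia fusion protein rather than wild-type CBFb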
[12] = biological target: T6, Runt-related transcription factor 1/Core-binding factor subunit beta; assay: inhibitors of RUNX1 Runt–CBFb-SMMHC binding, biochemical, TR-FRET (AID 1438); type: protein assay
[13] = biological target: Eukaryotic translation initiation factor 4H (Homo sapiens, UniProt Q15056); assay: eIF4H inhibition in translation initiation, SAR follow-up (AID 435011); type: functional
[14] = biological target: Polyadenylate-binding protein 1 (Homo sapiens, UniProt P11940); assay: PABP inhibition in translation initiation, SAR follow-up (AID 435018); type: functional
[15] = biological target: T1, Hexokinase HKDC1; assay: HKDC1 hexokinase inhibitors, dose response, biochemical, W721R variant (AID 504729); type: functional
[16] = biological target: Troponin, cardiac muscle (Homo sapiens, UniProt P19429+P45379+P63316); assay: Fluorescence-based biochemical high throughput dose response assay for activators of the calcium sensitivity of cardiac Regulated Thin Filaments (RTF). [Related pubchem assays (depositor defined):AID493008, AID493018, AID504382, AID504383]; type: protein-complex assay
[17] = biological target: Voltage-dependent T-type calcium channel subunit alpha-1H (Homo sapiens, UniProt O95180); assay: Cav3.2 T-type channel inhibitors, cell-based, synthetic library set 1, calcium flux (AID 493022); type: functional
[18] = biological target: T4, Tyrosine-protein phosphatase non-receptor type 7; assay: redox-dependent HePTP inhibition, mechanism study, biochemical, fluorescence (AID 2068); type: functional
[19] = biological target: Mu-type opioid receptor (Homo sapiens, UniProt P35372); assay: SAR Analysis of Antagonists of the MOR Receptor using an Image-Based Assay - Set 3. [Related pubchem assays (depositor defined):AID1777, AID1785, AID1786, AID1966, AID2133, AID2136, AID2284, AID2285, AID2420]; type: functional
[20] = biological target: T7, Kappa-type opioid receptor (Homo sapiens, UniProt P41145); assay: SAR analysis of small molecule antagonists of the kappa opioid receptor via a luminescent beta-arrestin assay - Set 4. [Related pubchem assays (depositor defined):AID1777, AID1778, AID1785, AID1786, AID1966, AID2133, AID2136, AID2285]; type: functional
[21] = biological target: Delta-type opioid receptor (Homo sapiens, UniProt P41143); assay: SAR Analysis of Antagonists of the DOR Receptor using an Image-Based Assay - Set 3. [Related pubchem assays (depositor defined):AID1777, AID1785]; type: functional;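 note: U2OS cells expressing DOR1 and beta-arrestin GFP stimulated with 100 nM SNC80; imaging of GFP-tagged beta-arrestin moving into spots after receptor activation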
[22] = biological target: T7, Kappa-type opioid receptor; assay: SAR analysis of Antagonists of the Kappa Opioid Receptor (KOR) using an Image-Based Assay - Set 4. [Related pubchem assays (depositor defined):AID1777, AID1785]; type: functional
[23] = biological target: T7, Kappa-type opioid receptor; assay: SAR analysis of small molecule antagonists of the kappa opioid receptor via a luminescent beta-arrestin assay - Set 3. [Related pubchem assays (depositor defined):AID1777, AID1778, AID1785, AID1786, AID1966, AID2133, AID2136, AID2285, AID2495]; type: functional
[24] = biological target: T7, Kappa-type opioid receptor; assay: SAR analysis of Antagonists of the Kappa Opioid Receptor (KOR) using an Image-Based Assay - Set 3. [Related pubchem assays (depositor defined):AID1777, AID1785]; type: functional
[25] = biological target: Induced myeloid leukemia cell differentiation protein Mcl-1 (Homo sapiens, UniProt Q07820); type: functional
[26] = biological target: Cystic fibrosis transmembrane conductance regulator/Golgi-associated PDZ and coiled-coil motif-containing protein (Homo sapiens, UniProt P13569+Q9HD26); assay: CAL PDZ peptide-binding inhibitors, dose response, biochemical, fluorescence polarization, Cerulean-tagged CAL PDZ, cherry-picks (AID 504773)
[27] = biological target: Beta-galactosidase (Escherichia coli, UniProt Q8VNN2); assay: beta-galactosidase enzyme inhibitors and activators, dose response, artefact control for CCR6 antagonist project, biochemical, E. coli enzyme, set 3 (AID 504712); type: functional
[28] = biological target: Eukaryotic translation initiation factor 4E (Mus musculus, UniProt P63073); assay: eIF4E–eIF4G protein interaction inhibitors, dose response, biochemical, TR-FRET (AID 855); type: functional;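 note: potency for disrupting eIF4E binding to eIF4GI seen as loss of FRET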
[29] = test system: INS1; assay: beta cell apoptosis inhibitors, cytokine rescue, dose response, luminescence, retest (AID 449756); type: functional, cell-based; details: Rattus norvegicus;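 note: cell death triggered by IL-1 beta plus TNF-alpha plus IFN-gamma mixture; protective hits raise ATP signal compared with cytokine alone wells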

COCc1cc(C2C(C(=O)c3ccco3)=C(O)C(=O)N2CCOCCO)ccc1O (configuration not stated)
EC50 [1]: > 80 µM (inactive)
Ki [2]: 29.7 µM (inactive)

CCc1ccc(-c2nc(C(N)=O)c3nc(O)n(-c4ccccc4OC)c3n2)cc1
EC50 [3]: 8.19 µM (active)
EC50 [4]: 0.185 µM (active)
IC50 [5]: 12.5 µM (active)

CCCCn1nc(C(=O)N2CCN(S(=O)(=O)c3ccccc3)CC2)c2ccccc2c1=O
EC50 [6]: 10.3 µM (active)

O=C(Nc1ccccc1)C1=C[C@H](C2CCCCC2)C[C@H](OCc2ccc(CO)cc2)O1
EC50 [7]: 2.99 µM (active)

CCN(CCO)Cc1csc2ccc(C(C)(C)C)cc12
IC50 [8]: > 79.4 µM (inactive)
IC50 [9]: > 79.4 µM (inactive)
IC50 [10]: > 79.4 µM (inactive)

O=C(NCc1ccccn1)c1cc2c(ccc3ccccc32)oc1=O
IC50 [11]: 1.33 µM (active)
IC50 [12]: > 100 µM (inactive)

COc1ccc(NC(=O)CSc2ccc(-c3ccco3)nn2)cc1OC
IC50 [13]: 73.8 µM (active)
IC50 [14]: > 100 µM (inactive)
IC50 [15]: 13.6 µM (active)

Cc1ccc(C)c(N2CCN(C(=O)CN3C(S)=NC(C)(C)CC3C)CC2)c1 (configuration not stated)
EC50 [16]: > 71.5 µM (inactive)

Cc1ccc(-c2nnc(NC(=O)C(C)Oc3ccccc3)o2)cc1C (configuration not stated)
EC50 [17]: 2.6 µM (active)

O=C(NCc1ccco1)Nc1ccc2nc(-c3ccco3)c(-c3ccco3)nc2c1
IC50 [18]: > 50 µM (inactive)

Cc1ccc(S(=O)(=O)NCc2ccc(C(=O)NC3CCCN(Cc4ccccc4)C3)cc2)cc1 (configuration not stated)
IC50 [19]: 6.75 µM (active)
IC50 [20]: 18.6 µM (inactive)
IC50 [21]: > 32 µM (inactive)
IC50 [22]: > 32 µM (inactive)

O=C(NCCN(Cc1ccccc1)Cc1ccccc1)c1ccc(CNS(=O)(=O)c2ccc(Br)cc2)cc1
IC50 [19]: > 32 µM (inactive)
IC50 [21]: > 32 µM (inactive)
IC50 [23]: > 20 µM (inactive)
IC50 [24]: 6.08 µM (active)

CCc1ccc(S(=O)(=O)/N=C2/C=C(Sc3nc[nH]n3)C(=O)c3ccccc32)cc1
IC50 [25]: 5.9 µM (active)
AC50 [26]: 23.1 µM (active)
IC50 [27]: > 66.6 µM (inactive)
IC50 [28]: > 64 µM (inactive)
IC50 [15]: 2.46 µM (active)
AC50 [29]: 7.93 µM (active)
